Values quoted from earlier work as cited in patent publication US20090029020A1, “CYCLODEXTRIN INCLUSION COMPLEXES AND METHODS OF PREPARING SAME” (CARGILL, INCORPORATED, priority 2005, published 2009).
Where two headings read alike, the source gives them in different places. Residues, ends and D or L forms follow the SMILES beside them.

Settings: octanol/water partition coefficient

SMILES	log P (Table 1A)	log P (Table 9)
CCOC(=O)C(C)O (stereo not drawn) [ethyl lactate]	−0.18	−0.18
CO [methanol]	−0.74	−0.74
Cc1occc(=O)c1O [maltol]	−0.19	−0.19
CCOC(=O)CC(C)C [ethyl isovalerate]	2.26	2.26
CSC [dimethyl sulfide]	0.92	0.92
ClC1CCCCC1 [chlorocyclohexane (CCH), chlorocyclohexane]	3.36	3.36
C=CC(C)(O)CCC=C(C)C (stereo not drawn) [linalool]		3.38
CN(CC(=O)O)C(=N)N [creatine]	−3.72	−3.72
CC1=C(O)C(=O)C(C)O1 (stereo not drawn) [furaneol]	0.82	0.82
CCOC(=O)C(C)C [ethyl isobutyrate]	1.77	1.77
CC=O [acetaldehyde]	−0.17	−0.17
CC(=O)CCc1ccc(O)cc1 [raspberry ketone]	1.48	1.48
CCOC(=O)CCC(C)=O [ethyl levulinate]	0.29	0.29
O=C(O)[C@@H]1CCCN1 [proline]	−2.15	−2.15
Cc1ccc(C(C)C)cc1 [p-cymene]	4.10	4.10
CCc1occc(=O)c1O [ethyl maltol]	0.30	0.30
CC(=O)C(C)=O [diacetyl]	−1.34	−1.34
COC(=O)[C@H](Cc1ccccc1)NC(=O)[C@@H](N)CC(=O)O [aspartame] (H-Asp-Phe-OMe)	0.07	0.07
CCOc1cc(C=O)ccc1O [ethyl vanillin]	1.50	1.50
C=C(C)[C@H]1CC=C(C)CC1 [limonene]	4.83	4.83
